The values below come from ChEMBL document CHEMBL5338820, “Discovery and Design of Novel Cyclic Peptides as Specific Inhibitors Targeting CCN2 and Disrupting CCN2/EGFR Interaction for Kidney Fibrosis Treatment” (J Med Chem, 2023).

pKd: −log10 of the molar value. Active and inactive are the calls of the source. The rule behind the calls is not given here. Peptide text beside a SMILES is read from it.

The target in data set [1] is T1, CCN2-EGFR (Homo sapiens) (UniProt P00533+P29279). The data set is described as follows: Inhibition of His-tagged full length human CCN2 CT domain/human Fc-tagged EGFR protein-protein interaction using TMB as chromogenic substrate at 100 uM incubated for 140 mins by microplate reader assay relative to control.
T1 sequence (P00533 whole entry, looked up, one chain of several, the tested form may be a part): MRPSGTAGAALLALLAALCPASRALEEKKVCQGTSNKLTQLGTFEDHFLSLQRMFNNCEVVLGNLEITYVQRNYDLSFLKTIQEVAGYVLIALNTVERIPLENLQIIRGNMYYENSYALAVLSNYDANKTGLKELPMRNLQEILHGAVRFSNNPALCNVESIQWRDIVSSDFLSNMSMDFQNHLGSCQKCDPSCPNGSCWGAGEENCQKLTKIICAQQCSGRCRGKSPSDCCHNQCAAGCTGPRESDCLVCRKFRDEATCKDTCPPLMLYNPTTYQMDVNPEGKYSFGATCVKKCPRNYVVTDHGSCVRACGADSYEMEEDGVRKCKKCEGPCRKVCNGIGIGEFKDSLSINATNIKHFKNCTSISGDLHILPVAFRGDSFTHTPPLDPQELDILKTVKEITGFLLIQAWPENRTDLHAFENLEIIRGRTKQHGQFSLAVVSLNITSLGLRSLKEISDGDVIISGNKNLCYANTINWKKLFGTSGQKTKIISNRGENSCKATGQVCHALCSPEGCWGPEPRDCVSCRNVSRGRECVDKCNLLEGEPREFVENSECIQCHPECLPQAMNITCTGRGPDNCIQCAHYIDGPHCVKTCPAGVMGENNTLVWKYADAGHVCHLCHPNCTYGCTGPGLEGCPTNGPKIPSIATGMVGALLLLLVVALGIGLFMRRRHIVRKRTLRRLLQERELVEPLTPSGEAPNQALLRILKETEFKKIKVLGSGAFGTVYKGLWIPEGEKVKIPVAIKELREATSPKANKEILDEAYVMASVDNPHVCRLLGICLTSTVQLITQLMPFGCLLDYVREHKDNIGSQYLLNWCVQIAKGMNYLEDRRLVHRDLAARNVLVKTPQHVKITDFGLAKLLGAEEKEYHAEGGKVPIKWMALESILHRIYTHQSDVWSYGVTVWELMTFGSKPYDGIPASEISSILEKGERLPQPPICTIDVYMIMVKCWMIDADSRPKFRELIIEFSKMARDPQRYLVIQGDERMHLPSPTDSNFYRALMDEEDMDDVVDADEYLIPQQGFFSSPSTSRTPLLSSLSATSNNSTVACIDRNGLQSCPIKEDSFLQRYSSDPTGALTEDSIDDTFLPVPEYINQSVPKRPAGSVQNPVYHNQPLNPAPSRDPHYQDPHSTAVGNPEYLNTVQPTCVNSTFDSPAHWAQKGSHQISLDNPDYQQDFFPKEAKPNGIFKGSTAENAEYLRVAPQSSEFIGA
The target of data set [2] is T2, CCN family member 2 (Homo sapiens) (UniProt P29279).
T2 sequence (whole entry): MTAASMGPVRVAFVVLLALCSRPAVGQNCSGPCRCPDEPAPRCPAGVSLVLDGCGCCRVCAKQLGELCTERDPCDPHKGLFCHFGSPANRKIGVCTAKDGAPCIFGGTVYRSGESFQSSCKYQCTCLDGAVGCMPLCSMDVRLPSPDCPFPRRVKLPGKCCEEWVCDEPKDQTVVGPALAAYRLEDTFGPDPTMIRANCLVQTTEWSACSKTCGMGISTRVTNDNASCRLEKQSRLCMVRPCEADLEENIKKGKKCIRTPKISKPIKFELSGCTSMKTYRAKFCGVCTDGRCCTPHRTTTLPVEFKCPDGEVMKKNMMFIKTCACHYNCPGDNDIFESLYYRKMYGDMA
The data set is described as follows: Inhibition of recombinant human CCN2 CT domain expressed in human […] cells assessed as reduction in COL1A1 synthesis at 100 uM incubated for 24 hrs by Western blotting assay. Format: cell-based. For orientation: Immunoblotting shows a protein as a band on a membrane.

Data set [3] addresses T2, CCN family member 2 (Homo sapiens). The data set is described as follows: Inhibition of recombinant human CCN2 CT domain expressed in human […] cells assessed as reduction in fibronectin synthesis at 100 uM incubated for 24 hrs by Western blotting assay. Type of data set: cell-based.
Data set [4] concerns the target T1, CCN2-EGFR (Homo sapiens). Briefly: Inhibition of His-tagged full length human CCN2 FL domain/human Fc-tagged EGFR protein-protein interaction using TMB as chromogenic substrate at 100 uM incubated for 140 mins by microplate reader assay relative to control.
For data set [5], the system named is Mus musculus. Briefly: Antifibrotic activity against Unilateral ureteric obstruction ligation induced C57BL/6J mouse kidney fibrosis model assessed as downregulation of STAT3 phosphorylation at 50 microg/kg,ip administrated for 14 days by Western blotting analysis. Type of data set: functional, organism-based. The note with it: dose 50.0 µg/kg, time 14.0 day.

Data set [6] relates to Mus musculus. The data set is described as follows: Antifibrotic activity against Unilateral ureteric obstruction ligation induced C57BL/6J mouse kidney fibrosis model assessed as reduction of renal tubular injury at 50 microg/kg,ip administrated for 14 days by hematoxylin and eosin staining based analysis. Type of data set: functional, organism-based. The note with it: dose 50.0 µg/kg, time 14.0 day.

The target of data set [7] is T2, CCN family member 2 (Homo sapiens). Briefly: Inhibition of recombinant human CCN2 FL domain expressed in human […] cells assessed as reduction in COL1A1 synthesis at 4 to 100 uM incubated for 24 hrs by Western blotting assay. Format: cell-based. The note with it: dose 4-100 µM.
The test system of data set [8] is Mus musculus. The data set is described as follows: Antifibrotic activity against Unilateral ureteric obstruction ligation induced C57BL/6J mouse kidney fibrosis model assessed as downregulation of fibronectin synthesis at 50 microg/kg,ip administrated for 14 days by Western blotting analysis. Type of data set: functional, organism-based. Conditions: dose 50.0 µg/kg, time 14.0 day.

Data set [9] has as its target T2, CCN family member 2 (Homo sapiens). Briefly: Inhibition of recombinant human CCN2 FL domain expressed in human HK-1 cells assessed as reduction in fibronectin synthesis at 20 uM incubated for 24 hrs by Western blotting assay. Format: cell-based.
Data set [10] can be described thus: Toxicity in Unilateral ureteric obstruction C57BL/6J mouse model assessed as change in behaviour at 50 microg/kg,ip administrated for 14 days. Conditions: in vivo, 0.05 mg/kg, 336 h, dose 50 µg/kg, time 14 day.
Data set [11] in a line: Tmax in Sprague-Dawley rat at 1 mg/kg,SC measured upto 48 hrs by LC-MS/MS analysis. Type of data set: ADME, organism-based. The note with it: in vivo.
Data set [12] deals with Mus musculus. The data set is described as follows: Antifibrotic activity against Unilateral ureteric obstruction ligation induced C57BL/6J mouse kidney fibrosis model assessed as downregulation of COL1A1 synthesis at 50 microg/kg,ip administrated for 14 days by Western blotting analysis. Format: functional, organism-based. Conditions: dose 50.0 µg/kg, time 14.0 day.
Data set [13] concerns Mus musculus. Briefly: Antifibrotic activity against Unilateral ureteric obstruction ligation induced C57BL/6J mouse kidney fibrosis model assessed as reduction of inflammatory infiltration at 50 microg/kg,ip administrated for 14 days by hematoxylin and eosin staining based analysis. Format: functional, organism-based. The note with it: dose 50.0 µg/kg, time 14.0 day.
Data set [14] in a line: AUC (0-t) in Sprague-Dawley rat at 1 mg/kg,SC measured upto 48 hrs by LC-MS/MS analysis. Type of data set: ADME, organism-based. The arrangement: time < 48 hrs, dose 1 mg/kg, route sc. Conditions: in vivo.
The target of data set [15] is T2, CCN family member 2 (Homo sapiens). The data set is described as follows: Inhibition of recombinant human CCN2 FL domain expressed in human […] cells assessed as reduction in COL1A1 synthesis at 20 uM incubated for 24 hrs by Western blotting assay. Format: cell-based.
Data set [16] in a line: Toxicity in Unilateral ureteric obstruction C57BL/6J mouse model assessed as change in hair color at 50 microg/kg,ip administrated for 14 days. Conditions: in vivo, 0.05 mg/kg, 336 h, dose 50 µg/kg, time 14 day.
Data set [17] can be described thus: Cmax in Sprague-Dawley rat at 1 mg/kg,SC measured upto 48 hrs by LC-MS/MS analysis. Type of data set: ADME, organism-based. The arrangement: time < 48 hrs, dose 1 mg/kg, route sc. Conditions: in vivo.
The subject of data set [18] is Mus musculus. The data set is described as follows: Antifibrotic activity against Unilateral ureteric obstruction ligation induced C57BL/6J mouse kidney fibrosis model assessed as reduction of collagen formation at 50 microg/kg,ip administrated for 14 days by […] staining based analysis. Format: functional, organism-based. The note with it: dose 50.0 µg/kg, time 14.0 day.

Another data set addresses T3, CCN family member 2 (Homo sapiens, UniProt P29279).
T3 sequence (P29279 whole entry): T2 sequence (whole entry)
The data set is described as follows: Binding affinity to His-tagged full length human CCN2 CT domain assessed as dissociation constant by isothermal titration calorimetry assay. For orientation: Isothermal titration calorimetry measures the heat released or taken up as one component is titrated into another.

For data set [19], the system named is Mus musculus. The data set is described as follows: Antifibrotic activity against Unilateral ureteric obstruction ligation induced C57BL/6J mouse kidney fibrosis model assessed as downregulation of EGFR phosphorylation at 50 microg/kg,ip administrated for 14 days by Western blotting analysis. Conditions: dose 50.0 µg/kg, time 14.0 day. Format: functional, organism-based.

Data set [20] in a line: Toxicity in Unilateral ureteric obstruction C57BL/6J mouse model assessed as change in food consumption at 50 microg/kg,ip administrated for 14 days. The note with it: in vivo, 0.05 mg/kg, 336 h, dose 50 µg/kg, time 14 day.
Data set [21] addresses T2, CCN family member 2 (Homo sapiens). Briefly: Inhibition of recombinant human CCN2 FL domain expressed in human […] cells assessed as reduction in fibronectin synthesis at 4 to 100 uM incubated for 24 hrs by Western blotting assay. Format: cell-based. The note with it: dose 4-100 µM.
Data set [22] is described as follows: Half life in Sprague-Dawley rat at 1 mg/kg,SC measured upto 48 hrs by LC-MS/MS analysis. Format: ADME, organism-based. The note with it: in vivo.
The target of data set [23] is T2, CCN family member 2 (Homo sapiens). The data set is described as follows: Inhibition of recombinant human CCN2 FL domain expressed in human […] cells assessed as reduction in STAT3 phosphorylation at 100 uM incubated for 24 hrs by Western blotting assay. Type of data set: cell-based.
The nature of data set [24]: Toxicity in Unilateral ureteric obstruction C57BL/6J mouse model assessed as change in body weight at 50 microg/kg,ip administrated for 14 days. Conditions: in vivo, 0.05 mg/kg, 336 h, dose 50 µg/kg, time 14 day.

For orientation: inhibition means the change of the read-out against control, counted positive when it falls. On to `C[C@@H](O)[C@H](NC(=O)[C@H](Cc1c[nH]c2ccccc12)NC(=O)[C@@H]1CCCN1C(=O)[C@H](CCCNC(=N)N)NC(=O)[C@H](Cc1c[nH]cn1)NC(=O)[C@H](Cc1c[nH]cn1)NC(=O)[C@@H](NC(=O)[C@@H](NC(=O)[C@@H](N)CC(=O)O)[C@@H](C)O)[C@@H](C)O)C(N)=O` (H-DTTHHRPWT-NH2), for which the values for the inhibition against CCN2-EGFR (Homo sapiens) [1] and against CCN2-EGFR (Homo sapiens) [4] were 65.8% and 63.7%, respectively. The inhibition result in data set [2] and in [3] was “Active” each time.

`C[C@@H](O)[C@H](NC(=O)[C@H](Cc1c[nH]c2ccccc12)NC(=O)[C@@H]1CCCN1C(=O)[C@H](CCCNC(=N)N)NC(=O)[C@@H](N)Cc1c[nH]cn1)C(N)=O` (H-HRPWT-NH2): the inhibition came out at 7.9% against CCN2-EGFR (Homo sapiens) [1] and 13.9% against CCN2-EGFR (Homo sapiens) [4]. Further, the inhibition entry in data set [2] and in data set [3] was “inactive” each time.

The Tmax is the time from dosing to the highest level. The AUC(0-t) is the area under the concentration-time curve up to a stated or last time point. Lower therefore signals low exposure. A word on the Cmax: it is the highest concentration seen after dosing. A word on the pKd: it is −log10 of the Kd, conventionally taken in molar units. For orientation: half-life means the time in which the quantity being followed falls by half. For `C[C@@H](O)[C@@H]1NC(=O)[C@H](Cc2c[nH]c3ccccc23)NC(=O)[C@@H]2CCCN2C(=O)[C@H](CCCNC(=N)N)NC(=O)[C@H](Cc2c[nH]cn2)NC(=O)[C@H](CCCCN)NC(=O)[C@H]([C@@H](C)O)NC1=O` (cyclo(HRPWTTK)), the result in the data set with Mus musculus [5], in the data set on Mus musculus [6], in the data set with Mus musculus [8], in the data set on Mus musculus [12], with Mus musculus [13] and in the data set on Mus musculus [18] was Active. The outcome with Mus musculus [19] was Active. Also, the inhibition entry in [7] is “Dose-Dependent Effect”; at CCN2-EGFR (Homo sapiens) [1], 76.7%; in data set [21], “Dose-Dependent Effect”; on CCN2-EGFR (Homo sapiens) [4] it was 63.8%. The inhibition result in data set [9], in [15], in data set [2], in data set [3] and in data set [23] was “Active” each time. Also, the Activity result in data set [10], in data set [16], in data set [20] and in data set [24] was “Non-Toxic” throughout. Besides, the Tmax in data set [11] was 60 min. The molecule further had an AUC(0-t) at 48 h in [14] of 3030 ng·h/mL. In [17], this molecule gave a Cmax of 1060 ng/mL. Moreover, on CCN family member 2, the pKd was 5.51. The same molecule gave a half-life in data set [22] of 54 min.
